Assays:
A549 tumors [1] = assay: Generation of azide groups in tumor tissues (western blot, immunohistochemical staining); format: in vivo, mice; settings: Ac4ManNAz 0.5, 5, 50 mM intratumoral once daily for 3 days; tumors dissected on day 4
Description: Preparation of tumor-bearing mouse models and administration of Ac4ManNAz were performed according to the same method as described above. 24 hours after the injection of Ac4ManNAz (on day 4), the tumors were dissected, transferred into 1 mL of lysis buffer (1% SDS, 100 mM Tris.HCl, pH 7.4) containing protease inhibitor (Complete, EDTA-free), and homogenized using a homogenizer (WiseMix HG-15D, Daihan Scientific, Seoul, Korea). The lysate was incubated at 4° C. for 30 minutes and insoluble debris was removed by centrifuging at 3,000×g for 10 minutes. Protein concentration was measured using the BCA protein assay kit. Staudinger reaction with phosphine-FLAG, SDS-PAGE and western blot analysis were conducted as described above.
The dissected tumor tissues were retrieved and fixed in a 4% (v/v) buffered formalin solution, dehydrated with graded ethanol series, and embedded in paraffin. The paraffin tissues were sliced into 4-μm wide slices and immunohistochemical staining was performed using Histostain®-Plus Brod Spectrum (Invitrogen, CA, USA) in combination with phosphine-FLAG and monoclonal anti-FLAG-HRP antibodies according to the manufacturer's instructions. The paraffin slices were dehydrated, mounted using the Permount SP15-100 Toluene Solution (Fisher Scientific, NJ, USA) mounting medium, and observed with an optical microscope (BX51, Olympus, Tokyo, Japan). […]

A549 cells = assay: Generation of azide groups on A549 cells (Coomassie staining, western blot with phosphine-FLAG); format: cell-based, human; settings: Ac4ManNAz 0.5, 5, 50 μM, 3 days
Description: A549 cells in 10 mL of media with no sugar or different concentrations of Ac4ManNAz (final concentrations of 0.5 μM, 5 μM and 50 μM) were seeded onto 100×20 mm polystyrene tissue culture plates at a density of 1.5×10^6 cells per plate and incubated for 3 days. The cells were washed twice with PBS (pH 7.4) and harvested from the plates with a cell scraper. The cells were pelletized by centrifuging at 3,000×g for 5 minutes and the supernatant was discarded. The cell pellets were resuspended in 500 μL of lysis buffer (1% SDS, 100 mM Tris.HCl, pH 7.4) containing protease inhibitor (Complete, EDTA-free) and lysed at 4° C. using a probe-type sonicator. The sonicated lysates were incubated at 4° C. for 30 minutes to further solubilize proteins. Insoluble debris was removed by centrifuging at 3,000×g for 10 minutes. Total soluble protein concentration was determined by the bicinchroninic acid (BCA) protein assay (Pierce, Ill., USA) to be 5 mg/mL. 20 μL of the lysate (5 mg/mL protein) was incubated with 2 μL of phosphine-FLAG (5 mM in PBS, pH 7.4) (Sigma, St. Louis, Mo., USA) at 37° C. for 6 hours. SDS-PAGE loading buffer was added to each sample. Then, aliquots were loaded onto 10% SDS-PAGE after heating at 95° C. […]

A549 tumors [2] = assay: In vivo and ex vivo NIRF imaging of tumor targeting in A549 tumor-bearing mice; settings: i.v., same fluorescence intensity as DBCO-lipo
Description: All experiments using live animals were performed in compliance with the relevant laws and the institutional guidelines of the Korea Institute of Science and Technology (KIST) and under the approval by the institutional committee. For in vivo and ex vivo experiments, 1.0×10^7 A549 tumor cells were administered to 5-week-old male athymic nude mice (20 g, Institute of Medical Science, Tokyo, Japan) on both flanks by subcutaneous injection. […] DBCO-lipo (10 mg/kg), DBCO-free control liposome (10 mg/kg) or DBCO-fluorescent dye conjugate of the same fluorescence intensity as DBCO-lipo were injected into the tail veins of two A549 tumor-bearing mice. […] Near-infrared (NIR) fluorescence emission at 700 nm was collected and detected with a fast photomultiplier tube (Hamamatsu, Japan) and a time-correlated single photon counting system (Becker and Hickl GmbH, Berlin, Germany). The active tumor targeting characteristics of DBCO-lipo were evaluated by capturing 20 z-section images at 1.0 mm spacing using the Analysis Workstation software (ART Advanced Research Technologies Inc., Montreal, Canada). […] NIR fluorescence images were obtained using a 12-bit CCD (Kodak Image Station 4000 MM, New Haven, Conn., USA) equipped with a Cy5.5 emission filter (600-700 nm; Omega Optical). […] All numerical values were expressed as mean±standard deviation for the three animal groups. […]

Question: For CC(=O)OC[C@H]1OC(OC(C)=O)[C@@H](NC(=O)CN=[N+]=[N-])[C@@H](OC(C)=O)[C@@H]1OC(C)=O (stereo partly drawn) [Ac4ManNAz, Tetraacetylated N-azidoacetyl-D-mannosamine], which “amount of azide groups in tumor tissues” value (A549 tumors [1]) is on record?
Answer: Its value is “increased in a dose-dependent manner”.

Question: What about the “generation of azide groups on cell surface” value (A549 cells) of the same compound?
Answer: Its value is “modified azide groups could be generated on the surface of the A549 cells”.

Question: How did the “NIRF image brightness in mice” value (A549 tumors [2]) turn out when dibenzylcyclooctyne-SETA650 [DBCO-SETA] was run?
Answer: Its value is “relatively dim images”.

Reference: patent publication US9801943B2, “Method for in vivo targeting of nanoparticles via bioorthogonal copper-free click chemistry” (KOREA INSTITUTE OF SCIENCE AND TECHNOLOGY, priority 2012, dated 2017)
